According to patent publication US12134620B2 (ARAXES PHARMA LLC, priority 2018, dated 2024):

Molecular target: T1, KRAS G12C 1-169, his-tagged protein, GDP-loaded (Homo sapiens, UniProt P01116, G12C)
T1 construct: KRAS G12C 1-169, his-tagged protein, GDP-loaded; His tag
Experiment: Biochemical assay: covalent modification of KRAS G12C, analysed by mass spectrometry (RapidFire/TOF or Q-Exactive)
Type: binding
Conditions: Modification activity, modification percentage from MS peak intensities
Description: Test compounds are prepared as 10 mM stock solutions in DMSO (Fisher cat. #BP-231-100). KRAS G12C 1-169, his-tagged protein, GDP-loaded is diluted to 2 μM or 0.5 μM in buffer (20 mM Hepes, 150 mM NaCl, 1 mM MgCl2). Compounds are tested for activity as follows:
Compounds are diluted to 50× final test concentration in DMSO in 96-well storage plates. Compound stock solutions are vortexed before use and observed carefully for any sign of precipitation. Dilutions are as follow: • For 32 μM final compound concentration, compounds are diluted to 1600 μM (3 μL 10 mM compound stock+15.75 μL DMSO and mixed well by pipetting. • For 8 μM final compound concentration, compounds are diluted to 400 μM (2 μL 10 mM compound stock+48 μL DMSO) and mixed well by pipetting. 49 μL of the stock protein solution is added to each well of a 96-well PCR plate (Fisher cat #1423027). 1 μl of the diluted 50× compounds are added to appropriate wells in the PCR plate using 12-channel pipettor. Reactions are mixed carefully and thoroughly by pipetting up/down with a 200 μL multi-channel pipettor. The plate is sealed well with aluminum plate seal, and protein and compound are allowed to react for a desired amount of time. 5 μL of 2% formic acid (Fisher cat #A117) in de-ionized H2O is then added to each well followed by mixing with a pipette to quench the reaction. The plate is then resealed with aluminum seal and stored frozen on dry ice until analyzed as described below.
The above described assays are analyzed by mass spectrometry according to one of the following two procedures:
The MS instrument is set to positive polarity, 2 GHz resolution, and low mass (1700) mode and allowed to equilibrate for 30 minutes. The instrument is then calibrated, switched to acquisition mode and the appropriate method loaded.
After another 30 minute equilibration time, a blank batch (i.e., buffer) is run to ensure equipment is operating properly. The samples are thawed at 37° C. for 10 minutes, briefly centrifuged, and transfer to the bench top. Wells A1 and H12 are spiked with 1 μL 500 μM internal standard peptide, and the plates centrifuged at 2000×g for 5 minutes. The method is then run and masses of each individual well recorded.
The masses (for which integration data is desired) for each well are pasted into the platemap and exported from the analysis. Masses for the internal standards are exported as well. The data at 50 ppm is extracted for the +19 charge state, and identity of well A1 is assigned using the internal standard spike and integrated. Peak data is exported as a TOF list and the above steps are repeated individually, for the +20, +21, +22, +23, +24, and +25 charge states.
The masses and peak intensities of KRAS G12C protein species are measured using a Dionex RSLCnano system (Thermo Scientific) connected to a Q Exactive Plus mass spectrometer (Thermo Scientific).
20 μL of sample is each loaded onto a Aeris™ 3.6 μm WIDEPORE C4 200 Å, LC Column 50×2.1 mm column maintained at 40° C. at a flow rate of 600 μL/min with 80% Solvent A (0.1% formic acid in H2O) and 20% Solvent B (0.1% formic acid in acetonitrile). The liquid chromatography conditions are 20% solvent B for 1 minute, 20% to 60% solvent B for 1.5 minutes, 60% to 90% solvent for 0.5 minute, 90% solvent B for 0.2 minute, 90% to 20% solvent B for 0.2 minute, and then equilibrated for 1.6 minute before the following sample injection. The flow rate is maintained at 600 μL/min throughout the sample analysis.
The mass spectrometer is operated in profile mode at a resolution of 17500, 5 microscans, using 50 msec max injection time and an AGC target of 1×10^6, and a full mass range from 800-1850 m/z is recorded. The intact protein mode is applied for optimal ion transfer and maximum sensitivity. The ionization method is electrospray ionization, which used a spray voltage of 4 kV, sheath gas flow set to 50 AU, auxiliary gas flow set to 10 AU and sweep gas flow set to 1 AU. […]

`C=CC(=O)N1CC2(CCN(c3nc(OCCN4CCC(F)(F)C4)nc(-c4c(C)ccc5[nH]ncc45)c3C#N)C2)C1` [Compound I-21, 4-(2-acryloyl-2,6-diazaspiro[3.4]octan-6-yl)-2-(2-(3,3-difluoropyrrolidin-1-yl)ethoxy)-6-(5-methyl-1H-indazol-4-yl)pyrimidine-5-carbonitrile] was tested. Which Binding % did it give?
Its Binding % is “++ (++ indicates binding activity from 50 to 85%)”.

Which Binding % does the source give for `C=CC(=O)N1CC2(CCN(c3nc(OC[C@@H]4CCCN4C)nc(-c4cc(O)ccc4C)c3C#N)C2)C1` [Compound I-22, (S)-4-(2-acryloyl-2,6-diazaspiro[3.4]octan-6-yl)-6-(5-hydroxy-2-methylphenyl)-2-((1-methylpyrrolidin-2-yl)methoxy)pyrimidine-5-carbonitrile] here?
Its Binding % is “+ (+ indicates binding activity greater than 0% and up to 50%)”.

Which Binding % does the source give for `C=CC(=O)N1CC2(CCN(c3nc(N4CCCC4=O)nc(-c4c(C)ccc5[nH]ncc45)c3C#N)C2)C1` [Compound I-23, 4-(2-acryloyl-2,6-diazaspiro[3.4]octan-6-yl)-6-(5-methyl-1H-indazol-4-yl)-2-(2-oxopyrrolidin-1-yl)pyrimidine-5-carbonitrile] here?
The Binding % was “++ (++ indicates binding activity from 50 to 85%)”.

`C=CC(=O)N1CC2(CCN(c3nc(N4Cc5ccccc5C4)nc(-c4c(C)ccc5[nH]ncc45)c3C#N)C2)C1` [Compound I-24, 4-(2-acryloyl-2,6-diazaspiro[3.4]octan-6-yl)-2-(isoindolin-2-yl)-6-(5-methyl-1H-indazol-4-yl)pyrimidine-5-carbonitrile] was tested. Which Binding % did it give?
Its Binding % is “++ (++ indicates binding activity from 50 to 85%)”.

For `C=CC(=O)N1CC2(CCN(c3nc(OC4CCOCC4)nc(-c4c(C)ccc5[nH]ncc45)c3C#N)C2)C1` [Compound I-25, 4-(2-acryloyl-2,6-diazaspiro[3.4]octan-6-yl)-6-(5-methyl-1H-indazol-4-yl)-2-((tetrahydro-2H-pyran-4-yl)oxy)pyrimidine-5-carbonitrile], which Binding % is on record?
Its Binding % is “+ (+ indicates binding activity greater than 0% and up to 50%)”.

How did the Binding % turn out when `C=CC(=O)N1CC2(CCN(c3nc(OC[C@@H]4CCCN4C)nc(-c4cccc5c4OCCO5)c3C#N)C2)C1` [Compound I-26, (S)-4-(2-acryloyl-2,6-diazaspiro[3.4]octan-6-yl)-6-(2,3-dihydrobenzo[b][1,4]dioxin-5-yl)-2-((1-methylpyrrolidin-2-yl)methoxy)pyrimidine-5-carbonitrile] was run?
Its Binding % is “+ (+ indicates binding activity greater than 0% and up to 50%)”.

How did the Binding % turn out when `C=CC(=O)N1CC2(CCN(c3nc(N4CCC(F)(F)C4)nc(-c4c(C)ccc5[nH]ncc45)c3C#N)C2)C1` [Compound I-27, 4-(2-acryloyl-2,6-diazaspiro[3.4]octan-6-yl)-2-(3,3-difluoropyrrolidin-1-yl)-6-(5-methyl-1H-indazol-4-yl)pyrimidine-5-carbonitrile] was run?
Its Binding % is “+++ (+++ indicates binding activity greater than 85%)”.

With `C=CC(=O)N1CC2(CCN(c3nc(N4CCN(C)C(=O)C4)nc(-c4c(C)ccc5[nH]ncc45)c3C#N)C2)C1` [Compound I-28, 4-(2-acryloyl-2,6-diazaspiro[3.4]octan-6-yl)-6-(5-methyl-1H-indazol-4-yl)-2-(4-methyl-3-oxopiperazin-1-yl)pyrimidine-5-carbonitrile] as the compound, how does the Binding % read?
The Binding % was “+++ (+++ indicates binding activity greater than 85%)”.

Which Binding % does the source give for `C=CC(=O)N1CC2(CCN(c3nc(OC[C@@H]4CCCN4C)nc(-c4c(C)ccc5[nH]cnc45)c3C#N)C2)C1` [Compound I-29, 4-(2-acryloyl-2,6-diazaspiro[3.4]octan-6-yl)-6-(5-methyl-1H-benzo[d]imidazol-4-yl)-2-(((S)-1-methylpyrrolidin-2-yl)methoxy)pyrimidine-5-carbonitrile] here?
Its Binding % is “+ (+ indicates binding activity greater than 0% and up to 50%)”.

Which Binding % does the source give for `C=CC(=O)N1CC2(CCN(c3nc(N4CCN(C)CC4)nc(-c4c(C)ccc5[nH]ncc45)c3C#N)C2)C1` [Compound I-30, 4-(2-acryloyl-2,6-diazaspiro[3.4]octan-6-yl)-6-(5-methyl-1H-indazol-4-yl)-2-(4-methylpiperazin-1-yl)pyrimidine-5-carbonitrile] here?
Its Binding % is “+++ (+++ indicates binding activity greater than 85%)”.

`C=CC(=O)N1CC2(CCN(c3nc(OC[C@@H]4CCCN4C)nc(-n4ccnc4)c3C#N)C2)C1` [Compound I-31, (S)-4-(2-acryloyl-2,6-diazaspiro[3.4]octan-6-yl)-6-(1H-imidazol-1-yl)-2-((1-methylpyrrolidin-2-yl)methoxy)pyrimidine-5-carbonitrile] was tested. Which Binding % did it give?
Its Binding % is “+ (+ indicates binding activity greater than 0% and up to 50%)”.

How did the Binding % turn out when `C=CC(=O)N1CC2(CCN(c3nc(N4CCC5(CCN(C)CC5)C4)nc(-c4c(C)ccc5[nH]ncc45)c3C#N)C2)C1` [Compound I-32, 4-(2-acryloyl-2,6-diazaspiro[3.4]octan-6-yl)-6-(5-methyl-1H-indazol-4-yl)-2-(8-methyl-2,8-diazaspiro[4.5]decan-2-yl)pyrimidine-5-carbonitrile] was run?
Its Binding % is “++ (++ indicates binding activity from 50 to 85%)”.

For `C=CC(=O)N1CC2(CCN(c3nc(N4CCOCC4)nc(-c4c(C)ccc5[nH]nc(N)c45)c3C#N)C2)C1` [Compound I-33, 4-(2-acryloyl-2,6-diazaspiro[3.4]octan-6-yl)-6-(3-amino-5-methyl-1H-indazol-4-yl)-2-morpholinopyrimidine-5-carbonitrile], which Binding % is on record?
Its Binding % is “+++ (+++ indicates binding activity greater than 85%)”.

`C=CC(=O)N1CC2(CCN(c3nc(N4CCCC4)nc(-c4c(C)ccc5[nH]nc(N)c45)c3C#N)C2)C1` [Compound I-34, 4-(2-acryloyl-2,6-diazaspiro[3.4]octan-6-yl)-6-(3-amino-5-methyl-1H-indazol-4-yl)-2-(pyrrolidin-1-yl)pyrimidine-5-carbonitrile] was tested. Which Binding % did it give?
Its Binding % is “+++ (+++ indicates binding activity greater than 85%)”.

With `C=CC(=O)N1CC2(CCN(c3nc(OC[C@@H]4CCCN4C)nc(-c4cnn(CCO)c4)c3C#N)C2)C1` [Compound I-35, (S)-4-(2-acryloyl-2,6-diazaspiro[3.4]octan-6-yl)-6-(1-(2-hydroxyethyl)-1H-pyrazol-4-yl)-2-((1-methylpyrrolidin-2-yl)methoxy)pyrimidine-5-carbonitrile] as the compound, how does the Binding % read?
Its Binding % is “+ (+ indicates binding activity greater than 0% and up to 50%)”.

With `C=CC(=O)N1CC2(CCN(c3nc(OC[C@@H]4CCCN4C)nc(Nc4ccccc4C(N)=O)c3C#N)C2)C1` [Compound I-36, (S)-2-((6-(2-acryloyl-2,6-diazaspiro[3.4]octan-6-yl)-5-cyano-2-((1-methylpyrrolidin-2-yl)methoxy)pyrimidin-4-yl)amino)benzamide] as the compound, how does the Binding % read?
The Binding % was “+ (+ indicates binding activity greater than 0% and up to 50%)”.

Which Binding % does the source give for `C=CC(=O)N1CC2(CCN(c3nc(OC[C@@H]4CCN(C)C4)nc(-c4c(C)ccc5[nH]ncc45)c3C#N)C2)C1` [Compound I-37, 4-(2-acryloyl-2,6-diazaspiro[3.4]octan-6-yl)-6-(5-methyl-1H-indazol-4-yl)-2-(((R)-1-methylpyrrolidin-3-yl)methoxy)pyrimidine-5-carbonitrile] here?
Its Binding % is “+ (+ indicates binding activity greater than 0% and up to 50%)”.

For `C=CC(=O)N1CC2(CCN(c3nc(OC[C@@H]4CCCN4C)nc(-n4cnc5ccccc54)c3C#N)C2)C1` [Compound I-38, (S)-4-(2-acryloyl-2,6-diazaspiro[3.4]octan-6-yl)-6-(1H-benzo[d]imidazol-1-yl)-2-((1-mehtylpyrrolidin-2-yl)methoxy)pyrimidine-5-carbonitrile], which Binding % is on record?
Its Binding % is “+ (+ indicates binding activity greater than 0% and up to 50%)”.
